Measured values from PubChem BioAssay (NCI).
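Compound exposure: 48 hours, 5 concentrations, 96-well plates. TGI: concentration producing complete growth inhibition.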

Legend:
Experiment in all cases: DTP human tumour cell line panel, 48 h
786-0 renal = system: 786-0 renal
A549 NSCLC = system: A549 NSCLC
ACHN renal = system: ACHN renal
CCRF-CEM leukemia = system: CCRF-CEM leukemia
COLO 205 colon = system: COLO 205 colon
DMS 114 small cell lung = system: DMS 114 small cell lung
DMS 273 small cell lung = system: DMS 273 small cell lung
EKVX NSCLC = system: EKVX NSCLC
HCT-116 colon = system: HCT-116 colon
HCT-15 colon = system: HCT-15 colon
HL-60(TB) leukemia = system: HL-60(TB) leukemia
HOP-62 NSCLC = system: HOP-62 NSCLC
HT29 colon = system: HT29 colon
IGROV1 ovarian = system: IGROV1 ovarian
K-562 leukemia = system: K-562 leukemia
KM12 colon = system: KM12 colon
KM20L2 colon = system: KM20L2 colon
LOX IMVI melanoma = system: LOX IMVI melanoma
LXFL 529 NSCLC = system: LXFL 529 NSCLC
M14 melanoma = system: M14 melanoma
M19-MEL melanoma = system: M19-MEL melanoma
MALME-3M melanoma = system: MALME-3M melanoma
MOLT-4 leukemia = system: MOLT-4 leukemia
NCI-H226 lung = system: NCI-H226 lung
NCI-H23 lung = system: NCI-H23 lung
NCI-H460 lung = system: NCI-H460 lung
NCI-H522 lung = system: NCI-H522 lung
OVCAR-3 ovarian = system: OVCAR-3 ovarian
OVCAR-4 ovarian = system: OVCAR-4 ovarian
OVCAR-5 ovarian = system: OVCAR-5 ovarian
OVCAR-8 ovarian = system: OVCAR-8 ovarian
RPMI-8226 leukemia = system: RPMI-8226 leukemia
RXF 393 renal = system: RXF 393 renal
SF-268 CNS = system: SF-268 CNS
SF-295 CNS = system: SF-295 CNS
SF-539 CNS = system: SF-539 CNS
SK-MEL-2 melanoma = system: SK-MEL-2 melanoma
SK-MEL-28 melanoma = system: SK-MEL-28 melanoma
SK-MEL-5 melanoma = system: SK-MEL-5 melanoma
SN12C renal = system: SN12C renal
SNB-19 CNS = system: SNB-19 CNS
SNB-75 CNS = system: SNB-75 CNS
SNB-78 CNS = system: SNB-78 CNS
SR leukemia = system: SR leukemia
SW-620 colon = system: SW-620 colon
TK-10 renal = system: TK-10 renal
U251 CNS = system: U251 CNS
UACC-62 melanoma = system: UACC-62 melanoma
UO-31 renal = system: UO-31 renal
XF 498 CNS = system: XF 498 CNS
DLD-1 colon = system: DLD-1 colon
HCC-2998 colon = system: HCC-2998 colon
HOP-92 NSCLC = system: HOP-92 NSCLC
SK-OV-3 ovarian = system: SK-OV-3 ovarian
UACC-257 melanoma = system: UACC-257 melanoma
A498 renal = system: A498 renal
CAKI-1 renal = system: CAKI-1 renal
MDA-N = system: MDA-N
RXF-631 renal = system: RXF-631 renal

Structure (SMILES): c1ccc(C2=NN3CN(N2)c2ccccc2OCCCOc2ccccc23)cc1
- TGI (786-0 renal): > 100 µM
- TGI (A549 NSCLC): > 100 µM
- TGI (ACHN renal): > 100 µM
- TGI (CCRF-CEM leukemia): > 100 µM
- TGI (COLO 205 colon): > 100 µM
- TGI (DMS 114 small cell lung): > 100 µM
- TGI (DMS 273 small cell lung): > 100 µM
- TGI (EKVX NSCLC): > 100 µM
- TGI (HCT-116 colon): > 100 µM
- TGI (HCT-15 colon): > 100 µM
- TGI (HL-60(TB) leukemia): > 100 µM
- TGI (HOP-62 NSCLC): > 100 µM
- TGI (HT29 colon): > 100 µM
- TGI (IGROV1 ovarian): > 100 µM
- TGI (K-562 leukemia): > 100 µM
- TGI (KM12 colon): > 100 µM
- TGI (KM20L2 colon): > 100 µM
- TGI (LOX IMVI melanoma): > 100 µM
- TGI (LXFL 529 NSCLC): > 100 µM
- TGI (M14 melanoma): > 100 µM
- TGI (M19-MEL melanoma): > 100 µM
- TGI (MALME-3M melanoma): > 100 µM
- TGI (MOLT-4 leukemia): > 100 µM
- TGI (NCI-H226 lung): > 100 µM
- TGI (NCI-H23 lung): > 100 µM
- TGI (NCI-H460 lung): > 100 µM
- TGI (NCI-H522 lung): > 100 µM
- TGI (OVCAR-3 ovarian): > 100 µM
- TGI (OVCAR-4 ovarian): > 100 µM
- TGI (OVCAR-5 ovarian): > 100 µM
- TGI (OVCAR-8 ovarian): > 100 µM
- TGI (RPMI-8226 leukemia): > 100 µM
- TGI (RXF 393 renal): > 100 µM
- TGI (SF-268 CNS): > 100 µM
- TGI (SF-295 CNS): > 100 µM
- TGI (SF-539 CNS): > 100 µM
- TGI (SK-MEL-2 melanoma): > 100 µM
- TGI (SK-MEL-28 melanoma): > 100 µM
- TGI (SK-MEL-5 melanoma): > 100 µM
- TGI (SN12C renal): > 100 µM
- TGI (SNB-19 CNS): > 100 µM
- TGI (SNB-75 CNS): > 100 µM
- TGI (SNB-78 CNS): > 100 µM
- TGI (SR leukemia): > 100 µM
- TGI (SW-620 colon): > 100 µM
- TGI (TK-10 renal): > 100 µM
- TGI (U251 CNS): > 100 µM
- TGI (UACC-62 melanoma): > 100 µM
- TGI (UO-31 renal): > 100 µM
- TGI (XF 498 CNS): > 100 µM

Structure (SMILES): C/C(=N\N(C)C)C(CN(C)C)C(c1ccccc1)c1c(O)c2ccccc2oc1=O (stereo not given)
- TGI (786-0 renal): > 100 µM
- TGI (A549 NSCLC): > 100 µM
- TGI (ACHN renal): > 100 µM
- TGI (CCRF-CEM leukemia): > 100 µM
- TGI (COLO 205 colon): > 100 µM
- TGI (DLD-1 colon): > 100 µM
- TGI (DMS 114 small cell lung): > 100 µM
- TGI (DMS 273 small cell lung): > 100 µM
- TGI (EKVX NSCLC): > 100 µM
- TGI (HCC-2998 colon): > 100 µM
- TGI (HCT-116 colon): > 100 µM
- TGI (HCT-15 colon): > 100 µM
- TGI (HL-60(TB) leukemia): > 100 µM
- TGI (HOP-92 NSCLC): > 100 µM
- TGI (HT29 colon): > 100 µM
- TGI (IGROV1 ovarian): > 100 µM
- TGI (K-562 leukemia): > 100 µM
- TGI (KM12 colon): > 100 µM
- TGI (KM20L2 colon): > 100 µM
- TGI (LOX IMVI melanoma): > 100 µM
- TGI (LXFL 529 NSCLC): > 100 µM
- TGI (M14 melanoma): > 100 µM
- TGI (MALME-3M melanoma): > 100 µM
- TGI (MOLT-4 leukemia): > 100 µM
- TGI (NCI-H226 lung): > 100 µM
- TGI (NCI-H23 lung): > 100 µM
- TGI (NCI-H460 lung): > 100 µM
- TGI (NCI-H522 lung): > 100 µM
- TGI (OVCAR-3 ovarian): > 100 µM
- TGI (OVCAR-4 ovarian): > 100 µM
- TGI (OVCAR-5 ovarian): > 100 µM
- TGI (OVCAR-8 ovarian): > 100 µM
- TGI (RPMI-8226 leukemia): > 100 µM
- TGI (RXF 393 renal): > 100 µM
- TGI (SF-268 CNS): > 100 µM
- TGI (SF-295 CNS): > 100 µM
- TGI (SK-MEL-2 melanoma): > 100 µM
- TGI (SK-MEL-28 melanoma): > 100 µM
- TGI (SK-MEL-5 melanoma): > 100 µM
- TGI (SK-OV-3 ovarian): > 100 µM
- TGI (SN12C renal): > 100 µM
- TGI (SNB-19 CNS): > 100 µM
- TGI (SNB-75 CNS): > 100 µM
- TGI (SNB-78 CNS): > 100 µM
- TGI (SW-620 colon): > 100 µM
- TGI (TK-10 renal): > 100 µM
- TGI (U251 CNS): > 100 µM
- TGI (UACC-257 melanoma): > 100 µM
- TGI (UACC-62 melanoma): > 100 µM
- TGI (XF 498 CNS): > 100 µM

Structure (SMILES): CN1CC2(CCCCC2)C(O)C12C=CCCC2 (stereo not given)
- TGI (786-0 renal): > 100 µM
- TGI (A498 renal): > 100 µM
- TGI (A549 NSCLC): > 100 µM
- TGI (CAKI-1 renal): > 100 µM
- TGI (CCRF-CEM leukemia): > 100 µM
- TGI (COLO 205 colon): > 100 µM
- TGI (DLD-1 colon): > 100 µM
- TGI (DMS 114 small cell lung): > 100 µM
- TGI (DMS 273 small cell lung): > 100 µM
- TGI (EKVX NSCLC): > 100 µM
- TGI (HCC-2998 colon): > 100 µM
- TGI (HCT-15 colon): > 100 µM
- TGI (HL-60(TB) leukemia): > 100 µM
- TGI (HOP-62 NSCLC): > 100 µM
- TGI (HT29 colon): > 100 µM
- TGI (IGROV1 ovarian): > 100 µM
- TGI (K-562 leukemia): > 100 µM
- TGI (KM12 colon): > 100 µM
- TGI (KM20L2 colon): > 100 µM
- TGI (LOX IMVI melanoma): > 100 µM
- TGI (LXFL 529 NSCLC): > 100 µM
- TGI (M14 melanoma): > 100 µM
- TGI (M19-MEL melanoma): > 100 µM
- TGI (MALME-3M melanoma): > 100 µM
- TGI (MOLT-4 leukemia): > 100 µM
- TGI (NCI-H226 lung): > 100 µM
- TGI (NCI-H23 lung): > 100 µM
- TGI (NCI-H522 lung): > 100 µM
- TGI (OVCAR-3 ovarian): > 100 µM
- TGI (OVCAR-8 ovarian): > 100 µM
- TGI (RPMI-8226 leukemia): > 100 µM
- TGI (RXF 393 renal): > 100 µM
- TGI (SF-268 CNS): > 100 µM
- TGI (SF-295 CNS): > 100 µM
- TGI (SF-539 CNS): > 100 µM
- TGI (SK-MEL-2 melanoma): > 100 µM
- TGI (SK-MEL-28 melanoma): > 100 µM
- TGI (SK-MEL-5 melanoma): > 100 µM
- TGI (SK-OV-3 ovarian): > 100 µM
- TGI (SN12C renal): > 100 µM
- TGI (SNB-19 CNS): > 100 µM
- TGI (SNB-75 CNS): > 100 µM
- TGI (SNB-78 CNS): > 100 µM
- TGI (SW-620 colon): > 100 µM
- TGI (TK-10 renal): > 100 µM
- TGI (U251 CNS): > 100 µM
- TGI (UACC-257 melanoma): > 100 µM
- TGI (UACC-62 melanoma): > 100 µM
- TGI (UO-31 renal): > 100 µM
- TGI (XF 498 CNS): > 100 µM

Structure (SMILES): CCN(CC)c1ccc(C(=C2C=CC(=[N+](CC)CC)C=C2)c2ccc(N(CC)CC)cc2)cc1
- TGI (ACHN renal): 0.348 µM
- TGI (COLO 205 colon): 0.503 µM
- TGI (DMS 114 small cell lung): 0.787 µM
- TGI (DMS 273 small cell lung): 1.15 µM
- TGI (EKVX NSCLC): 1.54 µM
- TGI (HCT-116 colon): 1.31 µM
- TGI (HOP-62 NSCLC): 1.58 µM
- TGI (IGROV1 ovarian): 1.18 µM
- TGI (KM12 colon): 1.18 µM
- TGI (M19-MEL melanoma): 1.31 µM
- TGI (MALME-3M melanoma): 0.588 µM
- TGI (MDA-N): 1.16 µM
- TGI (MOLT-4 leukemia): 1.78 µM
- TGI (OVCAR-5 ovarian): 1.06 µM
- TGI (RXF 393 renal): 1.04 µM
- TGI (RXF-631 renal): 1.18 µM
- TGI (SF-295 CNS): 1.11 µM
- TGI (SK-MEL-2 melanoma): 0.687 µM
- TGI (SK-MEL-28 melanoma): 1.82 µM
- TGI (SK-MEL-5 melanoma): 0.237 µM
- TGI (SK-OV-3 ovarian): 0.624 µM
- TGI (SNB-19 CNS): 1.79 µM
- TGI (SNB-75 CNS): 1.44 µM
- TGI (SR leukemia): 0.582 µM
- TGI (TK-10 renal): 1.45 µM
- TGI (U251 CNS): 1.31 µM
- TGI (UACC-257 melanoma): 1.01 µM
- TGI (UACC-62 melanoma): 1.52 µM
- TGI (UO-31 renal): 0.724 µM
- TGI (XF 498 CNS): 0.0815 µM
